target: T1, human CXCR2 receptor (Homo sapiens, UniProt P25025); experiment: [35S]-GTPγS binding assay for human CXCR2 receptor using SPA technology; assay type: biochemical; conditions: CHO-K1 membranes expressing human CXCR2, 100 nM IL-8
T1 construct: purchased Biosignal Packard Inc; host or cells: CHO-K1 (Chinese hamster ovary) cell membranes
T1 sequence (P25025 1-360): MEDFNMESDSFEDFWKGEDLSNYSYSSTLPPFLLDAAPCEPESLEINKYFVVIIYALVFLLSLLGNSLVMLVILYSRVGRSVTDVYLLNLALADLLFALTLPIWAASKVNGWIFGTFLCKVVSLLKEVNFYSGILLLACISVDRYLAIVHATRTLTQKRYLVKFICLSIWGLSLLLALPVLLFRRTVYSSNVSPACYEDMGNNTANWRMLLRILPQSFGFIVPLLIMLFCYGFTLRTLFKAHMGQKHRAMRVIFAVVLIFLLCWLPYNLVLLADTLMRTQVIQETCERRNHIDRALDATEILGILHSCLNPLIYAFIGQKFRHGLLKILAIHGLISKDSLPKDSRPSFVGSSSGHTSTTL
From the text: [^35S]-GTPγS Binding Assay for Human CXCR2 Receptor Using SPA Technology
[^35S]-GTPγS (with specific activity 1082 Ci/mmol) and wheat germ agglutinin poly vinyl toluene scintillation proximity beads are purchased from Amersham Pharmacia Biotech. The Chinese hamster ovary cell (CHO-K1) membranes expressing human CXCR2 receptors are purchased from Biosignal Packard Inc. All other chemicals are of analytical grade. White non-binding surface 96 well Optiplate™ microplates are obtained from Packard. Recombinant human IL-8 is synthesised, cloned and expressed in Escherichia coli as described previously (Lindley I, et al., Proc. Natl. Acad. Sci., 1988, 85(23):9199).
The assay is performed in duplicate in 96 well Optiplate™ microplate in a final volume of 250 μl per well. Compounds are diluted in DMSO (0.5% final concentration) and incubated in 20 mM HEPES buffer pH 7.4 containing 10 mM MgCl2, 100 mM NaCl, 1 mM EDTA plus 100 nM IL-8, 50 μM GDP and 500 pM [^35S]GTPγS per well. SPA beads (1 mg/well final concentration) were pre-mixed with the membranes (10 μg/well final concentration) in assay buffer: 20 mM HEPES buffer pH 7.4 containing 10 mM MgCl2, 100 mM NaCl, 1 mM EDTA. The bead membrane mixture is added to each well, plates are sealed and incubated at room temperature for 60 minutes. The plate is centrifuged and read on Packard TopCount™ scintillation counter, program [^35S dpm] for 1 min/well. Data are expressed as the % response to 100 nM IL-8 minus basal.

Question: With `CCC(Nc1c(Nc2ccc(Cl)c(S(=O)(=O)N(C)OC)c2O)c(=O)c1=O)c1cccnc1` (stereo not shown) [Example 2.50, 6-chloro-3-(3,4-dioxo-2-(1-(pyridin-3-yl)propylamino)cyclobut-1-enylamino)-2-hydroxy-N-methoxy-N-methylbenzenesulfonamide] as the molecule, how does the IC50 read?
Answer: 93 nM

Question: Which IC50 does the source give for `CON(C)S(=O)(=O)c1c(Cl)ccc(Nc2c(NC(C3CC3)C3CC3)c(=O)c2=O)c1O` [Example 2.17, 6-chloro-3-(2-(dicyclopropylmethylamino)-3,4-dioxocyclobut-1-enylamino)-2-hydroxy-N-methoxy-N-methylbenzenesulfonamide] here?
Answer: 8 nM

Question: For `CC[C@@H](Nc1c(Nc2ccc(Cl)c(S(=O)(=O)N(C)OC)c2O)c(=O)c1=O)c1ccccn1` [Example 7, 6-Chloro-3-[3,4-dioxo-2-((R)-1-pyridin-2-yl-propylamino)-cyclobut-1-enylamino]-2-hydroxy-N-methoxy-N-methyl-benzenesulfonamide], which IC50 is on record?
Answer: 4 nM

Question: Which IC50 does the source give for `CCCC(CCC)Nc1c(Nc2ccc(Cl)c(S(=O)(=O)N(C)OC)c2O)c(=O)c1=O` [Example 2.57, 6-chloro-3-(2-(heptan-4-ylamino)-3,4-dioxocyclobut-1-enylamino)-2-hydroxy-N-methoxy-N-methylbenzenesulfonamide] here?
Answer: 26 nM

Question: How did the IC50 turn out when `CON(C)S(=O)(=O)c1c(Cl)ccc(Nc2c(N[C@H]3CCSC3)c(=O)c2=O)c1O` [Example 3, 6-Chloro-3-{3,4-dioxo-2-[(S)-(tetrahydro-thiophen-3-yl)amino]-cyclobut-1-enylamino}-2-hydroxy-N-methoxy-N-methyl-benzenesulfonamide] was run?
Answer: 26 nM

Question: For `CC[C@@H](Nc1c(Nc2cccc(S(=O)(=O)N(CC)OC)c2O)c(=O)c1=O)[C@@H]1CCCO1` [Example 2.71, 3-(3,4-dioxo-2-((R)-1-((S)-tetrahydrofuran-2-yl)propylamino)cyclobut-1-enylamino)-N-ethyl-2-hydroxy-N-methoxybenzenesulfonamide], which IC50 is on record?
Answer: 56 nM

Question: For `CC[C@@H](Nc1c(Nc2ccc(Cl)c(S(=O)(=O)N(C)OC)c2O)c(=O)c1=O)[C@H]1CC[C@@H](C)O1` [Example 6, 6-Chloro-2-hydroxy-N-methoxy-N-methyl-3-{2-[(R)-1-((2R,5R)-5-methyl-tetrahydro-furan-2-yl)-propylamino]-3,4-dioxo-cyclobut-1-enylamino}-benzene sulfonamide], which IC50 is on record?
Answer: 28 nM

Question: How did the IC50 turn out when `CCC(CC)Nc1c(Nc2ccc(Cl)c(S(=O)(=O)N(C)OC)c2O)c(=O)c1=O` [Example 8, 6-Chloro-3-[2-(1-ethyl-propylamino)-3,4-dioxo-cyclobut-1-enylamino]-2-hydroxy-N-methoxy-N-methyl-benzenesulfonamide] was run?
Answer: 5 nM

Question: `COCC(C)Nc1c(Nc2ccc(Cl)c(S(=O)(=O)N(C)OC)c2O)c(=O)c1=O` (stereo not shown) [Example 2.23, 6-chloro-2-hydroxy-N-methoxy-3-(2-(1-methoxypropan-2-ylamino)-3,4-dioxocyclobut-1-enylamino)-N-methylbenzenesulfonamide] was tested. Which IC50 did it give?
Answer: 21 nM

Question: For `CCN(OC)S(=O)(=O)c1c(Cl)ccc(Nc2c(N[C@H](C)c3ccccc3)c(=O)c2=O)c1O` [Example 2.58, (R)-6-chloro-3-(3,4-dioxo-2-(1-phenylethylamino)cyclobut-1-enylamino)-N-ethyl-2-hydroxy-N-methoxybenzenesulfonamide], which IC50 is on record?
Answer: 28 nM

Question: Which IC50 does the source give for `CC[C@@H](Nc1c(Nc2ccc(Cl)c(S(=O)(=O)N(CC)OC)c2O)c(=O)c1=O)[C@H]1CCCO1` [Example 2.13, 6-Chloro-3-{3,4-dioxo-2-[(R)-(R)-1-(tetrahydro-furan-2-yl)-propylamino]-cyclobut-1-enylamino}-N-ethyl-2-hydroxy-N-methoxy-benzene sulfonamide] here?
Answer: 6 nM

Question: `CCN(OC)S(=O)(=O)c1c(Cl)ccc(Nc2c(NC(C)C)c(=O)c2=O)c1O` [Example 2.19, 6-chloro-N-ethyl-2-hydroxy-3-(2-(isopropylamino)-3,4-dioxocyclobut-1-enylamino)-N-methoxybenzenesulfonamide] was tested. Which IC50 did it give?
Answer: 9 nM

Question: How did the IC50 turn out when `CON(C)S(=O)(=O)c1c(Cl)ccc(Nc2c(NC(C)C)c(=O)c2=O)c1O` [Example 2.35, 6-chloro-2-hydroxy-3-(2-(isopropylamino)-3,4-dioxocyclobut-1-enylamino)-N-methoxy-N-methylbenzenesulfonamide] was run?
Answer: 14 nM

Question: `CON(C)S(=O)(=O)c1c(Cl)ccc(Nc2c(N[C@H](C)c3cnn(C)c3)c(=O)c2=O)c1O` [Example 2.95, (R)-6-chloro-2-hydroxy-N-methoxy-N-methyl-3-(2-(1-(1-methyl-1H-pyrazol-4-yl)ethylamino)-3,4-dioxocyclobut-1-enylamino)benzenesulfonamide] was tested. Which IC50 did it give?
Answer: 283 nM

Question: For `CCC(Nc1c(Nc2ccc(Cl)c(S(=O)(=O)N(C)OC)c2O)c(=O)c1=O)[C@H]1CCCO1` (stereo in doubt) [Example 4, 6-Chloro-3-{3,4-dioxo-2-[(R)-1-(tetrahydro-furan-2-yl)-propylamino]-cyclobut-1-enylamino}-2-hydroxy-N-methoxy-N-methyl-benzenesulfonamide], which IC50 is on record?
Answer: 13 nM

Question: How did the IC50 turn out when `CC[C@@H](Nc1c(Nc2ccc(Cl)c(S(=O)(=O)N(CC)OC)c2O)c(=O)c1=O)c1ccc(C)o1` [Example 2.43, (R)-6-chloro-N-ethyl-2-hydroxy-N-methoxy-3-(2-(1-(5-methylfuran-2-yl)propylamino)-3,4-dioxocyclobut-1-enylamino)benzenesulfonamide] was run?
Answer: 17 nM

Question: Which IC50 does the source give for `CON(C)S(=O)(=O)c1c(Cl)ccc(Nc2c(N[C@H](C)c3ccccc3)c(=O)c2=O)c1O` [Example 5, 6-Chloro-3-[3,4-dioxo-2-((R)-1-phenyl-ethylamino)-cyclobut-1-enylamino]-2-hydroxy-N-methoxy-N-methyl-benzenesulfonamide] here?
Answer: 33 nM

Question: With `CCC(Nc1c(Nc2ccc(Cl)c(S(=O)(=O)N(C)OC)c2O)c(=O)c1=O)c1cccc(C)n1` (stereo not shown) [Example 2.27, 6-chloro-2-hydroxy-N-methoxy-N-methyl-3-(2-(1-(6-methylpyridin-2-yl)propylamino)-3,4-dioxocyclobut-1-enylamino)benzenesulfonamide] as the molecule, how does the IC50 read?
Answer: 234 nM

Question: Which IC50 does the source give for `CCOC[C@H](C)Nc1c(Nc2ccc(Cl)c(S(=O)(=O)N(C)OC)c2O)c(=O)c1=O` [Example 2.47, (S)-6-chloro-3-(2-(1-ethoxypropan-2-ylamino)-3,4-dioxocyclobut-1-enylamino)-2-hydroxy-N-methoxy-N-methylbenzenesulfonamide] here?
Answer: 19 nM

Question: With `CON(C)S(=O)(=O)c1c(Cl)ccc(Nc2c(NC3CCCC3)c(=O)c2=O)c1O` [Example 2.60, 6-chloro-3-(2-(cyclopentylamino)-3,4-dioxocyclobut-1-enylamino)-2-hydroxy-N-methoxy-N-methylbenzenesulfonamide] as the molecule, how does the IC50 read?
Answer: 30 nM

Question: With `CC[C@@H](Nc1c(Nc2ccc(Cl)c(S(=O)(=O)N3C[C@H](O)CO3)c2O)c(=O)c1=O)[C@H]1CC[C@@H](C)O1` [Example 2.32, 3-(4-chloro-2-hydroxy-3-((S)-4-hydroxyisoxazolidin-2-ylsulfonyl)phenylamino)-4-((R)-1-((2R,5R)-5-methyltetrahydrofuran-2-yl)propylamino)cyclobut-3-ene-1,2-dione] as the molecule, how does the IC50 read?
Answer: 11 nM

Question: With `CC[C@@H](Nc1c(Nc2ccc(Cl)c(S(=O)(=O)N(C)OC)c2O)c(=O)c1=O)c1ccc(C)o1` [Example 2, 6-Chloro-2-hydroxy-N-methoxy-N-methyl-3-{2-[(R)-1-(5-methyl-furan-2-yl)-propylamino]-3,4-dioxo-cyclobut-1-enylamino}-benzenesulfonamide] as the molecule, how does the IC50 read?
Answer: 2 nM
